pIC50: −log10 of the molar value. Counter-ions that a name gives are not always drawn.
Species: Mus musculus
Assay: Effect on mouse allogenic mixed lymphocyte reaction (MLR)
Assay type: functional

**Q.** With CCCCCCCCCCCCCCCCCCC(CO)CO as the molecule, how does the pIC50 read?
**A.** Its pIC50 is under 5.00.

**Q.** How did the pIC50 turn out when CCCCCCCCCCCCCCCCCCC(N)(CO)CO was run?
**A.** Its pIC50 is 7.92.

**Q.** CCCCCCCCCCCCCCCCCCC(N)CO (configuration not stated) was tested. Which pIC50 did it give?
**A.** Its pIC50 is 6.85.

**Q.** With CCCCCCCCc1ccc(CCC(N)CO)cc1 (configuration not stated) as the molecule, how does the pIC50 read?
**A.** The pIC50 was 7.96.

**Q.** With CCCCCCCCc1ccc(CCC(N)(CO)CO)cc1 [FINGOLIMOD HYDROCHLORIDE] as the molecule, how does the pIC50 read?
**A.** The pIC50 was 8.21.

**Q.** CCCCCCC(=O)CCCCCC/C=C/C[C@@H](O)[C@H](O)[C@@](N)(CO)C(=O)O [MYRIOCIN] was tested. Which pIC50 did it give?
**A.** Its pIC50 is 8.10.

**Q.** How did the pIC50 turn out when CCCCCCCCCCCCCCCCCCN [OCTADECYLAMINE] was run?
**A.** The pIC50 was under 5.00.

Source: ChEMBL document CHEMBL1128796, “2-Substituted 2-aminoethanol: Minimum essential structure for immunosuppressive activity of ISP-I (Myriocin)” (Bioorg Med Chem Lett, 1995)
